Test results reported in patent publication US20060148030A1, “Nuclear receptor err y 3” (FUJISAWA PHARMACEUTICAL CO., LTD, priority 2002, published 2006).

T1: GR (Homo sapiens, UniProt P04150)
T1 construct: expressed in transfected cells; host or cells: CV-1 (African green monkey kidney)
T1 sequence (P04150 1-777): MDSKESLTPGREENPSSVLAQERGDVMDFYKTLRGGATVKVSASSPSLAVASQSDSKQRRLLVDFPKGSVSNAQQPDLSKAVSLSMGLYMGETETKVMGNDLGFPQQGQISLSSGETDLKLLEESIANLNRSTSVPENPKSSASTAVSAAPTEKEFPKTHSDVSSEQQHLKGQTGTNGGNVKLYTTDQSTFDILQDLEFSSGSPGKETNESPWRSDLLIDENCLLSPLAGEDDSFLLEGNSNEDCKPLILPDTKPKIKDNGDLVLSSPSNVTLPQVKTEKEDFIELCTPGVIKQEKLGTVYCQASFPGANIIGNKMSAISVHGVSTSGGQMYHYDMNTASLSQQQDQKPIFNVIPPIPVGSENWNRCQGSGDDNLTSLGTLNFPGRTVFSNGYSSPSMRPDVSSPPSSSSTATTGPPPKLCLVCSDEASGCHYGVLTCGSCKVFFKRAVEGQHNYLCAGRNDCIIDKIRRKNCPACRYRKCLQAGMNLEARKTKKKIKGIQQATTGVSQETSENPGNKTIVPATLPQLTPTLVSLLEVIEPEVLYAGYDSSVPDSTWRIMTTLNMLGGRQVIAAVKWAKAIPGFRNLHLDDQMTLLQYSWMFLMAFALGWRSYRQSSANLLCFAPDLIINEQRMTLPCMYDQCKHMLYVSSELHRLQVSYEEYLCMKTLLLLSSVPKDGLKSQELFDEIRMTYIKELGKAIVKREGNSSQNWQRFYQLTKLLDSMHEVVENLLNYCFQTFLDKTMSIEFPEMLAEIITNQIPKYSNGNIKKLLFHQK

T2: TR (Homo sapiens, UniProt P10827)
T2 construct: expressed in transfected cells; host or cells: CV-1 (African green monkey kidney)
T2 sequence (P10827 1-410 isoform P10827-2): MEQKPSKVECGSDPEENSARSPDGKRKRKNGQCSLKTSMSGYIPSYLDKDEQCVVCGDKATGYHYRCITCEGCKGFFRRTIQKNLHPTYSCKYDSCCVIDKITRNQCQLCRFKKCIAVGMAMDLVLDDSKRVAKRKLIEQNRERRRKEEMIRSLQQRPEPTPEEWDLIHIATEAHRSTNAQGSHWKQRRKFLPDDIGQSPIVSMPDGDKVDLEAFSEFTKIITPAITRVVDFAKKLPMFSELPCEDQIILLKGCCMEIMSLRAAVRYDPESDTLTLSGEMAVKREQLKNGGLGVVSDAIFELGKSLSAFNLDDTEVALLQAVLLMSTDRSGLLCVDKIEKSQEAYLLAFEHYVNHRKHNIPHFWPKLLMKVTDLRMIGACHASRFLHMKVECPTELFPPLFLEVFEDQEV


How the values were obtained:
[1] = biological target: T1, GR; assay: Reporter gene assay, ERRγ3 coexisted with GR, pGRE-luc in CV-1 cells; assay type: cell-based; details: 10^−5 M dexamethasone
Description: Transfection was performed as follows: CV-1 cells were resuspended in DMEM supplemented with 10% fetal bovine serum, 2000 U/l of penicillin G, and 100 mg/l of streptomycin to a concentration of 2×10^5 cells/2.5 ml. This was then seeded to a 6-well plate at 2.5 ml per well, and incubated for 18-24 hours in a CO2 incubator at 37° C. and 5% CO2. 1 μg of each of the expression plasmids for the transcription factors, the luciferase reporter plasmid, and another luciferase reporter plasmid used for normalization of the measured values (pRL-TK), were dissolved in Opti-MEM (Gibco BRL), to a total of 150 μl. 7 μl of the transfection reagent LipofectAMINE 2000 (Gibco BRL) was diluted in 143 μl of Opti-MEM, and this was added to the mixture drop by drop while stirring. The mixture was incubated for 20 minutes. […] Luciferase activity was measured using the Dual-Luciferase™ Reporter Assay System (Promega). […] The protocol for measurement was as follows: 50 μl of Luciferase Assay Reagent II was added to each well, stirred for 0.3 seconds, and measured for one second. 50 μl of Stop&Glo™ Reagent was then added, stirred for 0.3 seconds, and measured for one second. The measured values for firefly luciferase activity were corrected by dividing by the value for the Renilla luciferase activity, the internal control. Average values and standard errors were calculated from triplicate samples. […]

[2] = biological target: T2, TR; assay: Reporter gene assay, ERRγ3 coexisted with TR in CV-1 cells; assay type: cell-based

Molecule	effect of 4-hydroxytamoxifen on the inhibitory function of ERRγ3 on GR ([1]; 10^−5 M 4-hydroxytamoxifen, FIG. 25B)	effect of 4-hydroxytamoxifen on the enhancing function of ERRγ3 on TR ([2]; 10^−5 M thyroxine present)	effect of ERRγ3 on the transcriptional stimulation activity of GR ([1]; FIG. 25)	function enhancement of the transcription-controlling activity of TR ([2]; ERRγ3 with TR, 10^−5 M thyroxine, FIG. 18)
4-hydroxytamoxifen [reference compound]	reduced ERRγ3's inhibitory function	no function-enhancing effect	–	–
ERRγ3: novel ERRγ isoform, nuclear receptor protein of 396 amino acids (SEQ ID NO: 2) lacking part of the DNA binding domain (protein, listed as Homo sapiens) MSNKDRHIDSSCSSFIKTEPSSPASLTDSVNHHSPGGSSDASGSYSSTMNGHQNGLDSPPLYPSAPILGGSGPVRKLYDDCSSTIVEDPQTKCEYMLNSMPKRLCLVCGDIASGYHYGVASCEACKAFFKRTIQGVRLDRVRGGRQKYKRRIDAENSPYLNPQLAQPAKKPYNKIVSHLLVAEPEKIYAMPDPTVPDSDIKALTTLCDLADRELVVIIGWAKHIPGFSTLSLADQMSLLQSAWMEILILGVVYRSLSFEDELVYADDYIMDEDQSKLAGLLDLNNAILQLVKKYKSMKLEKEEFVTLKAIALANSDSMHIEDVEAVQKLQDVLHEALQDYEAGQHMEDPRRAGKMLMTLPLLRQTSTKAVQHFYNIKLEGKVPMHKLFLEMLEAKV	–	–	inhibited GR's transcriptional stimulation activity	128-229%
